In one data set the test system is viruses. Particulars: cited from earlier work.
The conditions of data set [1]: zinc salt; cited from earlier work.
The test system of the next data set is normal cells. To be noted: cited from earlier work.
The subject of the next data set is inflammation. From the text:
Another exemplary metal complex is disodium monozinc (II) citrate dihydrate, sold under the tradename MZC™ by National Research Laboratories, Ltd. of Cincinnati, Ohio.

Results on two compounds are retold here after patent US20060088477A1 (priority 2004, published 2006).

In the case of `CC(=O)[O-].CC(=O)[O-].[Zn+2]` [zinc acetate], the toxicity to viruses result in the data set on viruses is given as “very toxic to viruses”. Further, the pH entry in data set [1] is “about 5”. In addition, the “toxicity to normal cells” value with normal cells is “quite toxic to normal cells”.

On to “disodium monozinc (II) citrate dihydrate [MZC]”, for which the anti-inflammatory performance result in the data set on inflammation is given as “dramatic anti-inflammatory performance”.
